The record followed here is US4530932A, “4-(1H-indol-3-yl)-α-methyl-piperidine-1-ethanol derivatives” (Roussel Uclaf, priority 1982, dated 1985).

Counter-ions that a name gives are not always drawn. Like-named read-outs stand apart in the source and are kept apart here.

The test system of data set [1] is Rat arteries (arterial contractions, entry of calcium ions into the cells of smooth muscles). The data set is described as follows: In vitro anticalcic activity (inhibition of potassium-depolarized, calcium-induced contractions of isolated rat arteries). It is filed as cell-based. The settings on record: dose inhibiting by 50% the contractions caused by potassium ions (100 mM), 37° C., read-out: CI50 (the source's name). Here is the method: Rat arteries decoupled in a spiral were attached to a tension collector and were maintained in tanks containing 2.5 ml of Krebs-sodium bicarbonate buffer (NaCl: 120.8 mM, KCl: 5.9 mM, MgCl2 : 1.2 mM, NaH2 PO4 : 1.2 mM, NaHCO3 : 15.5 mM, glucose: 12.6 mM), at 37° C. covered with a 95%-5% oxygen-carbon dioxide mixture. The preparations were depolarized with a buffered solution containing 100 mM of potassium ions (NaCl: 26.7 mM, KCl: 100 mM, MgCl2 : 1.2 mM, NaH2 PO4 : 1.2 mM, NaHCO3 : 15.5 mM, glucose 12.6 mM).
A volume of 25 μl of calcium chloride was added to the mixture in a manner to obtain a range of increasing concentrations of calcium ions from 0.1 to 3.0 mM and the contractions of the artery were measured to obtain a control. The operation with range of calcium ions was repeated every 15 minutes and the preparation was washed 4 times after each range. When a stable response was obtained, the operation with the range of calcium ions was effected in the presence of varying concentrations of test compounds until a stable response was obtained.
The arterial contractions depend on the entry of calcium ions into the cells of smooth muscles and are provoked by depolarization of smooth muscles by potassium ions and by action of noradrenaline freed by presynapthic level. By recommencing the operation with denerved arteries by the action of 6-hydroxy-dopamine, the specific action due to noradrenaline is suppressed.

For data set [2], the target named is T1, β1 adrenergic receptors (Rattus norvegicus, UniProt P18090).
T1 construct: 10 cortexes removed from the brains of male rats weighing an average of 150 g; from tissue; host or cells: cerebral cortex of male rats (membranes)
Put plainly: Affinity for β1 adrenergic receptors (3H dihydroalprenolol displacement, rat brain cortex). It is filed as binding. The settings on record: relative to propranolol, 37° C., pH 7.7. The procedure:
The test was inspired by that of Mohler et al [Science, Vol. 198 (1977), p. 849-851] and 10 cortexes removed from the brains of male rats weighing an average of 150 g were homogenized in 90 ml of 0.32M of sucrose. After centrifuging the homogenized mixture at 1000 g for 20 minutes at 0° C., the surnageant was centrifuged at 30,000 g for 15 minutes at 0° to 4° C. The culot was suspended in 120 ml of buffer Tris HCl 50 mM with a pH of 7.7 and was centrifuged at 30,000 g for 15 minutes at 0° to 4° C. The resulting culot was suspended in 480 ml of buffer Krebs Tris HCl (50 mM-pH of 7.7) and 2 ml of the suspension in the presence of 3H dihydroalprenolol at a concentration of 10^-9 M alone and with increasing concentrations of the test compound or with non-radioactive propranolol at a concentration of 10^-5 M to determine the non-specific fixation was incubated at 37° C. for 10 minutes.
The incubated suspensions were filtered through Whatman GF/C and the filters were washed 3 times with 5 ml of buffer Krebs Tris HCl (pH-7.7) at 0° C. The radioactivity of the filters was measured by liquid scintillation and the affinity of the test compounds for β1 -adrenergic receptors was compared using propranolol as a standard as in Test D. The results are reported in Table VI.

The test system of data set [3] is mice. Put plainly: Acute toxicity (DL0, oral). It is filed as in vivo, mouse. Details: unit not given here.
The subject of data set [4] is cardiac rhythm troubles in guinea pigs. The data set is described as follows: Antiarythmic action (K-strophanthine and adrenaline induced cardiac rhythm troubles). It is filed as in vivo, guinea pig. Particulars: Cavia porcellus, 1 h, oral 10 mg/kg, one hour before K-strophanthine and adrenaline perfusion, read-out: Percentage of protection (lengthening of the time of appearance of cardiac rhythm troubles as compared to controls). Here is the method:
Male guinea pigs weighing between 450 and 500 g were tracheotomized while anesthesized by intraperitoneal administration of […] of urethane and were subjected to artifical respiration of 40 to 50 breaths of 5 ml per minute. Needles were subcutaneously implanted to register an electrocardiogram of the guinea pigs for the signal of D II derivation. The test products were orally administered and one hour later, the jugular vein of the guinea pigs were perfused with 0.5 ml per minute of a solution of 150 γ/ml of K-strophanthine and 0.5 ml per minute of a solution of 5 γ/ml of adrenaline and the number of times of the appearance of cardiac rhythm troubles was noted. The results are expressed in percentage of protection with an oral dose of 10 mg/kg of test product that is to say the percentage of lengthening of the time of appearance of cardiac rhythm troubles as compared to the controls.

The subject of data set [5] is carotidien arterial pressure in rats. Put plainly: Hypotensive activity (carotidien arterial pressure in anesthesized rats). It is filed as in vivo, rat (Wistar). Particulars: rat, intravenous. Here is the method: The hypotensive activity was studied on male rats of the Wistar strain weighing about 300 g and anesthesized with 50 mg/kg of nembutal intraveinously. The test products were administered intraveinously by the jugular vein and the carotidien arterial pressure was measured before and after administration of the test compounds. The variations expressed in percentage of arterial pressure after administration with respect to the initial pressure is reported in Table IV.

Data set [6] has as its system α1 adrenergic receptors. The data set is described as follows: Affinity for α1 adrenergic receptors (3H prazosine displacement, rat brain). It is filed as binding. The settings on record: relative to phentolamine (ARL=100×(CB/CX)), 25° C., pH 7.7. Here is the method:
After centrifugation at 30,000 g for 15 minutes at 0° to 4° C., the culot was suspended in 240 ml of buffer Tris HCl 50 mM (pH-7.7) and the suspension was centrifuged at 30,000 g for 20 minutes at 0° to 4° C. The new culot was suspended in 480 ml of buffer Krebs Tris HCl (pH of 7.7-50 mM) and 2 ml of the suspension in the presence of 3H prazosine at a concentration of […] alone and with increasing concentrations of the test compound or with non-radioactive phentolamine at a concentration of 10^-5 M to determine the non-specific fixation was incubated at 25° C. for 30 minutes.
The incubated suspensions were filtered through Whatman FG/C and the filtered were washed with 3 times with 5 ml of buffer Krebs Tris HCl-pH of 7.7 at 0° to 4° C. The radioactivity of the filters was measured by liquid scintillation and the affinity of the test compound for α1 adrenergic receptors was compared relative to phentolamine as the reference compound by the formula
CD=concentration of phentolamine inhibiting by 50% the specific fixation of 3H prazosine.
CX=concentration of test product inhibiting by 50% the specific fixation of 3H prazosine.

The mark [7] stands for this setting: 1 min, 1 minute, read-out: % Variation of arterial pressure after administration, 1 minute.
Where [8] appears, read: 5 min, 5 minutes, read-out: % Variation of arterial pressure after administration, 5 minutes.
Setting [9] is: 10 min, 10 minutes, read-out: % Variation of arterial pressure after administration, 10 minutes.
Setting [10] is: 0.5 h, 30 minutes, read-out: % Variation of arterial pressure after administration, 30 minutes.

T1 sequence (P18090 whole entry): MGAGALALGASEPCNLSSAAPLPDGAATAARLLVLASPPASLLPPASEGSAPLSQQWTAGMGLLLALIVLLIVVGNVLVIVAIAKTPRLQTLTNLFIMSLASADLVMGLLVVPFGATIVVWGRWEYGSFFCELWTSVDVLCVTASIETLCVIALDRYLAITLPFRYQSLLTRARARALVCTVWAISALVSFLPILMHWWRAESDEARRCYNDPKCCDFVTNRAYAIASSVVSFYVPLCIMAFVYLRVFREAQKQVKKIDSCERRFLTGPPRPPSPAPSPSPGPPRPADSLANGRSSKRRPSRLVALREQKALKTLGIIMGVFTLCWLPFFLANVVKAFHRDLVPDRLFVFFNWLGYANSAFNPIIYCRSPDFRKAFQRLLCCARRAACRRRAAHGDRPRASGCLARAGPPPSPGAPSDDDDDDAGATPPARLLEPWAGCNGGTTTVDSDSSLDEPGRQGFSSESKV

`OC(COc1cccc2ccccc12)CN1CCC(c2c[nH]c3ccccc23)CC1` (stereo not drawn) [Example 2, 4-(1H-indol-3-yl)-α-[1-naphthyloxymethyl]-piperidine-1-ethanol]: the IC50 in data set [1] was 3.5 µM. The “ARL in % (relative affinity for β1 adrenergic receptors)” value in data set [2] turned out to be 0.9%. For the same compound, the “DL0 (maximum dose which did not cause any deaths after 8 days)” value in data set [3] is recorded as > 1000.
Consider `COc1ccc(OCC(O)CN2CCC(c3c[nH]c4ccccc34)CC2)cc1` (stereo not drawn) [Example 8, 4-(1H--indol-3-yl)-α-[4-methoxyphenoxymethyl]-piperidine-1-ethanol hydrochloride], for which the IC50 in data set [1] was found to be 4.2 µM. For the same compound, in data set [4], the change in vivo at 10 mg/kg was determined as 57%. The change in vivo at 1 mg/kg in data set [5] (setting [7]) was -10%; in data set [5] (setting [8]), -13%; in data set [5] (setting [9]), 0%; in data set [5] (setting [10]) it was -13%. Also, in data set [6], the “% Arl (relative affinity for α1 adrenergic receptors)” value is listed as 222%. For the same compound, the “DL0 (maximum dose which did not cause any deaths after 8 days)” value in data set [3] was > 200.
As for `Cc1ccccc1OCC(O)CN1CCC(c2c[nH]c3ccccc23)CC1` (stereo not drawn) [Example 9, 4-(1H--indol-3-yl)-α-[2-methylphenoxymethyl]-piperidine-1-ethanol hydrochloride], the IC50 in data set [1] worked out at 3.8 µM. In addition, in data set [4], the change in vivo at 10 mg/kg is 48%. For the same compound, the change in vivo at 1 mg/kg in data set [5] (setting [7]) is -21%; in data set [5] (setting [8]), -9%; in data set [5] (setting [9]) it was -25%; in data set [5] (setting [10]), -20%. Also, in data set [6], the “% Arl (relative affinity for α1 adrenergic receptors)” value worked out at 92%. Besides, in data set [2], the “ARL in % (relative affinity for β1 adrenergic receptors)” value came out at 2.55%. For the same compound, the “DL0 (maximum dose which did not cause any deaths after 8 days)” value in data set [3] is > 100.
As to `OC(COc1ccccc1Cl)CN1CCC(c2c[nH]c3ccccc23)CC1` (stereo not drawn) [Example 10, 4-(1H--indol-3-yl)-α-[2-chlorophenoxymethyl]-piperidine-1-ethanol hydrochloride], the IC50 in data set [1] was 2 µM. Moreover, the change in vivo at 10 mg/kg in data set [4] was found to be 59%. Also, the change in vivo at 1 mg/kg in data set [5] (setting [7]) is -21%; in data set [5] (setting [8]) it was -20%; in data set [5] (setting [9]), -12%; in data set [5] (setting [10]), -20%. Also, in data set [2], the “ARL in % (relative affinity for β1 adrenergic receptors)” value is reported as 1.95%. Moreover, the “DL0 (maximum dose which did not cause any deaths after 8 days)” value in data set [3] is recorded as > 100.
As to `O=[N+]([O-])c1ccccc1OCC(O)CN1CCC(c2c[nH]c3ccccc23)CC1` (stereo not drawn) [Example 11, 4-(1H--indol-3-yl)-α-[2-nitrophenoxymethyl]-piperidine-1-ethanol hydrochloride], the IC50 in data set [1] worked out at 4.2 µM. Besides, in data set [4], the change in vivo at 10 mg/kg amounted to 56%. The “% Arl (relative affinity for α1 adrenergic receptors)” value in data set [6] stood at 77%. Besides, in data set [2], the “ARL in % (relative affinity for β1 adrenergic receptors)” value was determined as 1.2%. Also, in data set [3], the “DL0 (maximum dose which did not cause any deaths after 8 days)” value is 100.
`OC(COc1ccccc1F)CN1CCC(c2c[nH]c3ccccc23)CC1` (stereo not drawn) [Example 12, 4-(1H--indol-3-yl)-α-[2-fluorophenoxymethyl]-piperidine-1-ethanol hydrochloride]: the IC50 in data set [1] came out at 3.2 µM. In data set [4], the change in vivo at 10 mg/kg is 90%. For the same compound, the change in vivo at 1 mg/kg in data set [5] (setting [7]) was -27%; in data set [5] (setting [8]), -14%; in data set [5] (setting [9]), -27%; in data set [5] (setting [10]), -24%. The “% Arl (relative affinity for α1 adrenergic receptors)” value in data set [6] worked out at 233%. The “ARL in % (relative affinity for β1 adrenergic receptors)” value in data set [2] worked out at 1.2%. The “DL0 (maximum dose which did not cause any deaths after 8 days)” value in data set [3] turned out to be 80.
For `Oc1ccccc1OCC(O)CN1CCC(c2c[nH]c3ccccc23)CC1` (stereo not drawn) [Example 13, 4-(1H--indol-3-yl)-α-[2-hydroxy-phenoxymethyl]-piperidine-1-ethanol hydrochloride], the IC50 in data set [1] stood at 4.5 µM. In addition, the change in vivo at 10 mg/kg in data set [4] amounted to 112%. Also, the “% Arl (relative affinity for α1 adrenergic receptors)” value in data set [6] stood at 293%. Besides, in data set [2], the “ARL in % (relative affinity for β1 adrenergic receptors)” value is recorded as 1.1%. Also, the “DL0 (maximum dose which did not cause any deaths after 8 days)” value in data set [3] was > 100.
With `Cc1ccc(OCC(O)CN2CCC(c3c[nH]c4ccccc34)CC2)cc1` (stereo not drawn) [Example 21, 4-(1H--indol-3-yl)-α-[4-methylphenoxymethyl]-piperidine-1-ethanol hydrochloride], the IC50 in data set [1] is 1.8 µM. In addition, the change in vivo at 10 mg/kg in data set [4] worked out at 60%. For the same compound, the “% Arl (relative affinity for α1 adrenergic receptors)” value in data set [6] turned out to be 93%. In data set [3], the “DL0 (maximum dose which did not cause any deaths after 8 days)” value is on record as > 100.
